Reference: EP0067666A1, “Salts of antimicrobial naphthyridine and quinoline compounds and their production” (priority 1981, dated 1982)
In brackets after ≈: the same amount, converted by molar mass. Read-outs that look alike come from different tables or passages of the source. Marks after values point to notes of the source that are not given here.

Legend:
[1] = Solubility of lyophilized and crystalline solids; assay type: physicochemical; settings: for pH of Solution Cryst. / pH of Solution Lyo.: CPD B salt; for pH of Solution Cryst.: crystalline solid
[2] = Solubility screening procedure (concentration and pH of filtrate); assay type: physicochemical; settings: for Conc. of CPD B: compound B + equimolar acid, amino acid or base in deionized water, room temperature, filtrate, UV assay; for pH of Solution: pH of the filtrate, CPD B solutions
Procedure: (§1) The amount of Compound A or Compound B calculated for selected concentrations was weighed into volumetric flasks. Equimolar quantities of combining acid, amino acid, or base were added either as solutions or in dry form. Deionized water was added to bring the volume to that desired for the preselected concentrations.. All flasks were sonicated for 15 minutes, allowed to stand at room temperature for 30 minutes, then filtered through a fine frit sintered glass funnel. After the pH of the filtrate was taken, suitable dilutions were made into 0.1N HCl for ultraviolet spectrophotometric assay of concentration. Ten fold dilutions of the original filtrates were made into standard I.V. solutions.

[3] = 10x dilution of soluble forms with standard IV solutions (pH, precipitate); assay type: physicochemical; settings: for Solution 2 pH dil: concentrated Cpd B solution (154-221 mg/ml) diluted 10x with 5% Dextrose; for Solution 3 pH dil: concentrated Cpd B solution (154-221 mg/ml) diluted 10x with 5% Dextrose + 0.9% NaCl; for Solution 4 pH dil: concentrated Cpd B solution (154-221 mg/ml) diluted 10x with Lactated Ringer's Solution; for Solution 1 ppt 24 hr / Solution 3 ppt 24 hr / Solution 2 ppt 24 hr / Solution 4 ppt 24 hr: precipitate at 24 hr; for Solution 2 ppt 4 hr / Solution 2 ppt 24 hr: concentrated Cpd B solution diluted 10x with 5% Dextrose
Procedure: as §1

[4] = system: Escherichia coli Vogel; experiment: Acute mouse protection test; assay type: in vivo; settings: Escherichia coli, single dose given at time of challenge, compound A series
[5] = system: Staph. aureus UC-76; experiment: Antibacterial activity, MIC; assay type: cell-based; settings: Staphylococcus aureus, UC76, based on content of compound A
[6] = system: E. coli Vogel; experiment: Antibacterial activity, MIC; assay type: cell-based; settings: Escherichia coli, based on content of compound A
[7] = system: Entero cloacae MA 2646; experiment: Antibacterial activity, MIC; assay type: cell-based; settings: based on content of compound A
[8] = system: Strep. pyogenes C-203; experiment: Antibacterial activity, MIC; assay type: cell-based; settings: Streptococcus pyogenes, C203, based on content of compound A
[9] = system: Strep. pneumoniae SV-1; experiment: Antibacterial activity, MIC; assay type: cell-based; settings: Streptococcus pneumoniae, SV1, based on content of compound A
[10] = system: Pseudo. aeruginosa UI-18; experiment: Antibacterial activity, MIC; assay type: cell-based; settings: based on content of compound A
[11] = system: Klebs. pneumoniae MGH-2; experiment: Antibacterial activity, MIC; assay type: cell-based; settings: Klebsiella pneumoniae, MGH2, based on content of compound A
[12] = system: Klebsiella pneumoniae MGH-2; experiment: Acute mouse protection test; assay type: in vivo; settings: Klebsiella pneumoniae, single dose given at time of challenge, compound A series
[13] = system: Strep. faecalis MGH-2; experiment: Antibacterial activity, MIC; assay type: cell-based; settings: Enterococcus faecalis, MGH2, based on content of compound A
[14] = system: Proteus retgeri M 1771; experiment: Antibacterial activity, MIC; assay type: cell-based; settings: based on content of compound A
[15] = system: Staph. aureus H 228; experiment: Antibacterial activity, MIC; assay type: cell-based; settings: Staphylococcus aureus, H228, based on content of compound A
[16] = concentrated Cpd B solution (155-221 mg/ml) diluted 10x with 0.9% NaCl
[17] = concentrated Cpd B solution (155-221 mg/ml) diluted 10x with 0.9% NaCl, precipitate at 4 hr
[18] = concentrated Cpd B solution diluted 10x with 5% Dextrose + 0.9% NaCl
[19] = concentrated Cpd B solution diluted 10x with Lactated Ringer's Solution
[20] = low-concentration Cpd B solution (26.2-52 mg/ml) diluted 10x with 0.9% NaCl
[21] = undiluted concentrated Cpd B solution used for the Solution 1 dilution
[22] = undiluted concentrated solution (at least 155 mg/ml) used for the Solution 1 dilution (for most salts for all four solutions)
[23] = undiluted low-concentration Cpd B solution (26.2-52 mg/ml)
[24] = undiluted low-concentration solution (26.2-52 mg/ml), diluted with Solution 1 only

Row | SMILES | pH of Solution Cryst. [1] | pH of Solution Lyo. ([1]; lyophilized solid) | Conc. of CPD B [2] [mg/mL] | pH of Solution [2] | Solution 2 pH dil [3] | Solution 3 pH dil [3] | Solution 4 pH dil [3] | Solution 1 pH dil [3, 16] | Solution 1 ppt 4 hr [3, 17] | Solution 1 ppt 24 hr [3, 16] | Solution 3 ppt 24 hr [3, 18] | Solution 2 ppt 4 hr ([3]; precipitate at 4 hr) | Solution 2 ppt 24 hr [3] | Solution 4 ppt 24 hr [3, 19] | Solution 1 pH dil [3, 20] | Solution 1 ppt 24 hr [3, 20] | pH of Solut. [3, 21] | Concen. of Cpd B [3, 22] [mg/mL] | pH of Solut. [3, 23] | Concen. of Cpd B [3, 24] [mg/mL] | other results
1 | CCn1cc(C(=O)O)c(=O)c2cc(F)c(N3CCNCC3)nc21 [B L-Glutamic] | 4.84 | 4.8 | 160 | 4.98 | 5.06 | 4.95 | 5.09 | 5.10 | no | yes | slight | slight | slight | slight | 4.99 | no | 4.98 | 160 | 4.95 | 48.2 | pH of Solut. ([3]; separate undiluted concentrated Cpd B solution used for Solutions 2-4 only): 5.20; Concen. of Cpd B ([3]; separate undiluted concentrated solution used for Solutions 2-4 only): 154 mg/mL
2 | CCn1cc(C(=O)O)c(=O)c2cc(F)c(N3CCNCC3)nc21 [B Methane Sulphonic] | 3.15 | 1.8 | 211 | 1.67^c | 3.2 | 2.8 | 4.2 | 2.3 | yes | yes | yes | hazy | hazy | yes | 4.47 | no | 1.38 | 178 | 5.07 | 26.2 | solubility ([1]; lyophilized solid, not necessarily maximum value, read-out: Conc. of CPD B mg/ml Lyo.): 200 mg/mL (≈ 624000 µM); Solution 3 ppt 4 hr ([3]; concentrated Cpd B solution diluted 10x with 5% Dextrose + 0.9% NaCl, precipitate at 4 hr): yes; Solution 4 ppt 4 hr ([3]; concentrated Cpd B solution diluted 10x with Lactated Ringer's Solution, precipitate at 4 hr): yes
3 | CCn1cc(C(=O)O)c(=O)c2cc(F)c(N3CCNCC3)cc21 [Compound A, 1-ethyl-6-fluoro-1,4-dihydro-4-oxo-7-(1-piperazinyl)-3-quinolinecarboxylic acid, reference compound] |  |  |  |  |  |  |  |  |  |  |  |  |  |  |  |  |  |  |  |  | ED50 ([4]; po, read-out: Single po Dose PD50 (mg/kg) ± 95% Confidence Limits Escherichia coli Vogel): 3.3 ± 0.5 mg/kg; ED50 ([4]; sc, subcutaneous, read-out: Single sc Dose PD50 (mg/kg) ± 95% Confidence Limits Escherichia coli Vogel): 0.5 ± 0.1 mg/kg; MIC [5]: 0.1 µg/mL (≈ 0.313 µM); MIC [6]: 0.1 µg/mL (≈ 0.313 µM); MIC [7]: < 0.1 µg/mL; MIC [8]: 0.8 µg/mL (≈ 2.51 µM); MIC [9]: 0.8 µg/mL (≈ 2.51 µM); MIC µg/ml Pseudo. aeruginosa UI-18 [10]: 0.4 µg/mL (≈ 1.25 µM); MIC [11]: 0.2 µg/mL (≈ 0.626 µM); ED50 ([12]; MGH2, po, oral, read-out: Single po Dose PD50 (mg/kg) ± 95% Confidence Limits Klebsiella pneumoniae MGH-2): 15 ± 3 mg/kg; ED50 ([12]; MGH2, sc, subcutaneous, read-out: Single sc Dose PD50 (mg/kg) ± 95% Confidence Limits Klebsiella pneumoniae MGH-2): 1.3 ± 0.3 mg/kg; MIC [13]: 1.6 µg/mL (≈ 5.01 µM); MIC [14]: < 0.1 µg/mL; MIC [15]: 1.6 µg/mL (≈ 5.01 µM)
